Assay results published in publication PMC12024474 (RSC Medicinal Chemistry, 2025).
Like-named read-outs stand apart in the source and are kept apart here. Where a SMILES comes first, the peptide text is derived from it. [ ]: non-standard residue; d: D form. Hmp(2R,3S) = CC[C@H](C)[C@@H](O)C(=O)O; Sta = CC(C)C[C@H](N)[C@@H](O)CC(=O)O; dNMeF = CN[C@H](Cc1ccccc1)C(=O)O; NMeQ = CN[C@@H](CCC(N)=O)C(=O)O

Columns and labels:
CatE = conditions: cited from earlier work
MDA-MB-231 cells = assay: MTT cell viability assay; type: cell-based, human; conditions: MDA-MB-231, 48 h treatment

Compound	preference for CatE compared to CatD (CatE)	preference for CatE compared to CatD (CatE; listed as grassystatin C) [fold]	IC50 (cell viability) (MDA-MB-231 cells) [µg/mL]
CC[C@H](C)[C@H](NC(=O)C[C@H](O)[C@H](CC(C)C)NC(=O)[C@H](CCC(N)=O)N(C)C(=O)[C@H](CC(C)C)NC(=O)[C@H](O)[C@@H](C)CC)C(=O)NCC(=O)N(C)[C@H](Cc1ccccc1)C(=O)N1CCC[C@H]1C(=O)OC [Grassystatin C, grassystatin C] ({Hmp(2R,3S)}-L[NMeQ][Sta]IG[dNMeF]P-OMe)	about 30 fold	> 30	
TRAIL: tumor necrosis factor-related apoptosis-inducing ligand			0.025
